Measurements published in patent publication US10603385B2, “Methods and compositions for templated assembly of nucleic acid specific heterocompounds” (priority 2013, dated 2020).

Test system: Caski cells
Assay: Azide-cyclooctyne templated assembly on HPV16 E6/E7 in transfected living cells, sandwich detection of ligated product
Format: cell-based, human
Conditions: Lipofectamine 2000 transfection, 24 hours after transfection
Protocol: A set of corresponding reactants specific for the HPV16 E6/E7 gene were transfected into Caski cells to evaluate non-traceless nucleic acid templated assembly on tumor-associated targets in living cells. Sandwich enzymatic detection was used to confirm that templated assembly ligation product was preferentially formed in Caski cells rather than related cell lines lacking HPV16 E6/E7 sequence
Caski and HeLa cell lines were cultured in DMEM medium with 10% heat inactivated fetal bovine serum. For each experimental condition, 1×10^6 cells were plated in a T-25 flask 24 hours before transfection. A flask from each cell line was transfected with both templated assembly reactants (experimental), and Caski flasks were also transfected with each one of the reactants in isolation as well (negative controls).
Lipofectamine 2000 (Invitrogen) was used as the transfection reagent in accordance with the manufacturer's instructions Immediately prior to transfection, cell flasks were washed with 1×PBS and Optimem serum-free medium was added as the growth medium. […] Separately, 11 uL of Lipofectamine 2000 was incubated with 275 uL of Optimem serum-free medium for 15 minutes. […] 500 uL of the Oligo-3.1-Lipofectamine transfection solution was then dispensed to the experimental flask. […]

Substance: 5′-FAM-CCAGAUGUCUUUGCU-Azide-3′ [Oligo-3.1]
- Corrected Absorbance A450: 0.003
